{"source": "patent US20060089410A1", "about": "“Combination of chemotherapeutic drugs for increasing antitumor activity” (Titan Pharmaceuticals, Inc., priority 2002, published 2006)", "key": {"[1]": {"tested_on": "T24 bladder cancer cells", "assay": "Pretreatment followed by various chemotherapeutic agents, T24", "assay_type": "cell-based, human", "description": "Human T24 bladder and A549 lung cancer cells were exposed to increasing concentrations of pivaloyloxymethyl butyrate for 6 or 72 hours followed by exposure to various chemotherapeutic agents. […] At higher dosages the increase in cytotoxicity following the sequential regimen would show after a shorter induction period with pivaloyloxymethyl butyrate as discussed above."}, "[2]": {"tested_on": "c-myc", "assay": "Oncogene expression after exposure of tumor cells", "assay_type": "cell-based", "conditions": "72-hour exposure, 10-50 μM", "from_the_text": "(§1) The observed morphologic changes consistent with a more differentiated phenotype prompted investigation of oncogene expression following exposure to pivaloyloxymethyl butyrate."}, "[3]": {"tested_on": "p53", "assay": "Oncogene expression after exposure of tumor cells", "assay_type": "cell-based", "conditions": "72-hour exposure, 10-50 μM", "from_the_text": "as §1"}, "[4]": {"tested_on": "ras", "assay": "Oncogene expression after exposure of tumor cells", "assay_type": "cell-based", "conditions": "72-hour exposure, 10-50 μM", "from_the_text": "as §1"}, "[5]": {"tested_on": "tumor cells", "assay": "Growth inhibitory and cytotoxic effects on tumor cells in tissue culture", "assay_type": "cell-based", "conditions": "tumor cell line dependent", "from_the_text": "Testing of a pivaloyloxymethyl butyrate dose and schedule interactions with chemotherapy in tissue culture was undertaken to facilitate clinical planning.\nas §1"}, "[6]": {"tested_on": "Calu-6 anaplastic lung carcinoma cells", "assay": "Crystal violet microtiter assay, Pivanex then cytotoxic drug, Calu-6", "assay_type": "cell-based", "description": "(§2) T24 Bladder transitional carcinoma cells, Calu-6 anaplastic lung carcinoma cells, and SK-MES-1 squamous lung cell carcinoma cell cultures were purchased from the American Type Culture Collection (Manassas, Va.). All cell lines were cultured in RPMI-1640 with 10% fetal calf serum. For culture in microtiter dishes, cells were plated at a density of 10^4 cells/well and incubated at 37° C., 5% CO2 overnight.\n(§3) After overnight incubation, drugs were added to wells in quadruplicate and incubated for 6 to 96 hours in the presence or absence of the oxyalkylene containing compound. […] the media was removed, fresh media were added with cytotoxic drug, and the cultures were incubated for another 6 hours.\n(§4) The wells were then washed and medium without drug was added to each well. Microtiter plates were subsequently incubated for an additional 3 days before cell density was determined by a Crystal Violet Assay. Some cultures were alternatively fixed in methanol and stained with hematoxylin and eosin (H&E) stain for 5 minutes prior to microphotography.\n(§5) PIVANEX (pivaloyloxymethyl butyrate) was obtained from Titan Pharmaceuticals Inc. (South San Francisco, Calif.) and was admixed with 0.05% Intralipid™ (Fresenius Kabi, Clayton, N.C.) prior to addition to culture media. The cytotoxic drugs gemcitabine (Gemzar; Eli Lilly and Co., Indianapolis, Ind.), cisplatin (Platinol, Bristol-Myers Squibb Co., Princeton, N.J.), paclitaxel (Taxol; Bristol-Myers Squibb Co., Princeton, N.J.), and docetaxel (Taxotere, Aventis Pharmaceuticals Products, Inc., Bridgewater, N.J.) were studied with PIVANEX.\n(§6) Cells in microtiter wells were rinsed with PBS and fixed in two volumes of 100% cold methanol for 5 minutes. One volume of 0.5% crystal violet in 20% methanol was added and the attached cells stained for 10 minutes. The cells were then washed and crystal violet was eluted with 0.1 N sodium citrate buffer and read on an ELISA plate reader at 490 nm."}, "[7]": {"tested_on": "H23 (NCI-H23) NSCLC cell line", "assay": "MTS growth inhibition assay, sequencing of Pivanex and docetaxel, H23", "assay_type": "cell-based, human", "conditions": "after 24 hour exposure", "experimental": "Human Non-Small Cell Lung Carcinoma Cell Lines, H522 and NCI-H23, were evaluated for growth inhibitory activity of Pivanex, alone and in combination with the standard chemotherapeutic agent, docetaxel. Cells were treated for three days with Pivanex followed by 24 hours of exposure to docetaxel or the cells were treated for 24 hours with docetaxel followed by three days of exposure to Pivanex. The cell growth inhibition was judged at the end of the 4-day experiments by a standard staining technique using MTS tetrazolium vital stain. […]\nExponentially growing cells were harvested with trypsin (0.05%)/EDTA (0.02%) and re-suspended in fresh medium containing 10% FBS. […] Absorbance was documented on a Dynex HD microplate reader at a wavelength of 490 nm. IC50 values were determined by using the Prism® GraphPad software from 3 different tests, each of which involved 4 replicates for each dose determination. The data are presented as percent growth inhibition, where 0% represents the mean value in wells to which only vehicle (0.1% DMSO) was added and was calculated as follows: % Growth Inhibition=(1−(ODtest/ODvehicle))×100 where ODtest is the optical density of the tested sample, OD vehicle is the optical density of the vehicle in which each respected drug is dissolved."}, "[8]": {"assay": "Preliminary Phase I/II clinical trials, lung cancer and refractory malignancies metastatic to the liver", "assay_type": "in vivo, human"}, "[9]": {"tested_on": "T24 Bladder transitional carcinoma cells", "assay": "Crystal violet microtiter assay, Pivanex then cytotoxic drug, T24", "assay_type": "cell-based, human", "description": "as §2, §3, §4, §5, §6"}, "[10]": {"conditions": "Pivanex 50 μM, gemcitabine 0 nM"}, "[11]": {"conditions": "Pivanex 100 μM, gemcitabine 0 nM"}}}
{"smiles": "CCCC(=O)OCOC(=O)C(C)(C)C", "note": "[Pivanex, pivaloyloxymethyl butyrate]", "values": [{"measurement": "enhancement of cytotoxicity of chemotherapeutic agents", "setting": "[1]; T24, 6-hour pretreatment, lower doses", "value": "did not enhance cytotoxicity"}, {"measurement": "enhancement of cytotoxicity of chemotherapeutic agents", "setting": "[1]; T24, 72-hour pretreatment", "value": "did enhance drug-induced cytotoxicity"}, {"measurement": "c-myc expression", "setting": "[2]", "value": "significant suppression"}, {"measurement": "p53 expression", "setting": "[3]", "value": "significant suppression"}, {"measurement": "ras expression", "setting": "[4]", "value": "significant suppression"}, {"measurement": "concentrations at which cytotoxicity was observed", "setting": "[5]; 6-hour exposure", "value": "greater than 125 μM"}, {"measurement": "concentrations at which cytotoxicity was observed", "setting": "[5]; 72 hours of treatment", "value": "greater than 25 μM"}, {"measurement": "Calu-6 cancer cell viability (A^490 Absorbance)", "setting": "[6]; Pivanex 10 μM, cisplatin 0 μM", "value": 0.617}, {"measurement": "Calu-6 cancer cell viability (A^490 Absorbance)", "setting": "[6]; Pivanex 10 μM, docetaxel 0 nM", "value": 0.732}, {"measurement": "Calu-6 cancer cell viability (A^490 Absorbance)", "setting": "[6]; Pivanex 10 μM, gemcitabine 0 nM", "value": 0.617}, {"measurement": "Calu-6 cancer cell viability (A^490 Absorbance)", "setting": "[6]; Pivanex 50 μM, cisplatin 0 μM", "value": 0.577}, {"measurement": "Calu-6 cancer cell viability (A^490 Absorbance)", "setting": "[6]; Pivanex 50 μM, docetaxel 0 nM", "value": 0.553}, {"measurement": "Calu-6 cancer cell viability (A^490 Absorbance)", "setting": "[6]; [10]", "value": 0.577}, {"measurement": "Calu-6 cancer cell viability (A^490 Absorbance)", "setting": "[6]; Pivanex 100 μM, cisplatin 0 μM", "value": 0.284}, {"measurement": "Calu-6 cancer cell viability (A^490 Absorbance)", "setting": "[6]; [11]", "value": 0.284}, {"measurement": "cell growth with agent alone", "setting": "[7]", "value": "steep increase in H23 cell growth"}, {"measurement": "tolerability", "setting": "[8]", "value": "well tolerated"}, {"measurement": "T24 cancer cell viability (A^490 Absorbance)", "setting": "[9]; Pivanex 10 μM, cisplatin 0 μM", "value": 0.48}, {"measurement": "T24 cancer cell viability (A^490 Absorbance)", "setting": "[9]; Pivanex 25 μM, gemcitabine 0 nM", "value": 0.479}, {"measurement": "T24 cancer cell viability (A^490 Absorbance)", "setting": "[9]; Pivanex 50 μM, cisplatin 0 μM", "value": 0.422}, {"measurement": "T24 cancer cell viability (A^490 Absorbance)", "setting": "[9]; [10]", "value": 0.455}, {"measurement": "T24 cancer cell viability (A^490 Absorbance)", "setting": "[9]; [11]", "value": 0.414}, {"measurement": "T24 cancer cell viability (A^490 Absorbance)", "setting": "[9]; Pivanex 200 μM, gemcitabine 0 nM", "value": 0.41}]}
